In brackets after ≈: the same amount, converted by molar mass. Like-named read-outs stand apart in the source and are kept apart here.
How the values were obtained:
[1] = Solubility of free ergoline compounds in water / phosphate-buffered solution; type: physicochemical; details: for Löslichkeit in Wasser: compared with Lisurid; for solubility: free compound, read-out: Löslichkeit
Description: Für strukturverwandte Wirkstoffe, welche auf derselben Grundstruktur basieren, können ähnliche physikalischchemische Aktivitäten in vitro, in vivo sowie in klinischen Studien erwartet werden. Die Lisuridderivate Tergurid und Protergurid weisen Alkylsubstituenten am Stickstoff (N6) der Grundstruktur sowie eine Einfachbindung zwischen den Positionen 9 und 10 auf. […] Die Löslichkeit des freien Protergurid beträgt beispielsweise 2.6 mg/100 mL in einer phosphatgepufferten Lösung (pH 7.4). Die Löslichkeit des freien Lisurids kann entsprechend auf 2.2 mg/100 mL abgeschätzt werden, wobei dieser Wert aus den Löslichkeitsdaten der jeweiligen Wirkstoffe/Wirkstoffsalze kalkuliert wurde (Zimmermann I (1983) International Journal of Pharmaceutics 13: 57-65).

[2] = oral, daily; 17th Report of the Joint FAO/WHO Expert Committee on Food Additives, 1974; cited from earlier work
[3] = Solubility improvement by cosolvent; type: physicochemical; details: Propylenglykol as low-dosed additive (weniger als 10%)
[4] = for Mittlere Fläche (Lisuridpeakfläche zur totalen Peakfläche des Chromatogramms): 9% Propylenglykol, no buffer, 2 mg/3 mL
Description: Die Wirkstoffkonzentration wurde auf 2 mg pro 3 mL eingestellt. Es wurde kein Puffersystem hinzugegeben. Das weitere Vorgehen umfasste das Einwiegen von 33.3 mg des Wirkstoffs in einen skalierten 50 mL Kolben, anschließende Zugabe des Propylenglykols (4.5g) sowie die Beigabe von 40 mL Wasser. Der Kolben wurde für mehrere Minuten geschüttelt und anschließend Ultraschall ausgesetzt, bis der Wirkstoff vollständig gelöst war. Der Kolben wurde auf Raumtemperatur abgekühlt und bis zur Markierung mit bidestilliertem Wasser aufgefüllt. Abschließend wurde zur Gewährleistung der Homogenität für eine weitere Minute geschüttelt. Die Lösung wurde in durchsichtige Glasampullen von 1 ml Volumen abgefüllt. Diese wurden luftdicht verschlossen und zum Lichtschutz mit Aluminiumfolie umwickelt. Die Ampullen wurden jeweils bei 6 bis 8°C, 25°C und 40°C aufbewahrt.

[5] = Stability of Lisuridhydrogenmaleat in citrate-buffered aqueous solutions (RP-HPLC, UV detection); details: citrate buffer; for Färbung / degraded at 4320 h: no cosolvent; for Mittlere Fläche (Lisuridpeakfläche zur totalen Peakfläche des Chromatogramms): t 0 d; for degraded at 4320 h: 180 Tage, protected from light
[6] = 60°C, one week, in the dark, 10080 min
Description: Als Additive wurden Propylenglykol und Cremophor ELP in Konzentrationen zwischen 1.00 und 10.00% eingesetzt. […] Die Lösungen wurden im Dunkeln in Glasbehältern bei 60°C für eine Woche aufbewahrt.

CCCN1C[C@@H](NC(=O)N(CC)CC)C[C@@H]2c3cccc4[nH]cc(c34)C[C@H]21 [Protergurid]
Löslichkeit in Wasser [1]: vergleichbare Löslichkeit in Wasser wie Lisurid | solubility ([1]; phosphate-buffered solution, phosphatgepufferte Lösung (pH 7.4)): 26 µg/mL (≈ 70.6 µM)

CCN(CC)C(=O)N[C@H]1C[C@@H]2c3cccc4[nH]cc(c34)C[C@H]2N(C)C1 [Tergurid]
Löslichkeit in Wasser [1]: vergleichbare Löslichkeit in Wasser wie Lisurid

CCN(CC)C(=O)N[C@H]1C=C2c3cccc4[nH]cc(c34)C[C@H]2N(C)C1 [Lisurid]
solubility ([1]; estimated, calculated from solubility data of the drugs/drug salts (Zimmermann 1983)): ~22 µg/mL

CC(O)CO (stereo not drawn) [Propylenglykol, 1,2-Propandiol (Propylenglykol)]
geschätzte Menge, welche als tägliche orale Dosis akzeptabel ist [2]: 25 mg/kg kg

CCN(CC)C(=O)N[C@H]1C=C2c3cccc4[nH]cc(c34)C[C@H]2N(C)C1 [Lisuridhydrogenmaleat]
Löslichkeit des Wirkstoffs [3]: verbesserten Löslichkeit | Wirkstoff zersetzt ([4]; 40°C, 180 Tage, 9% Propylenglykol (cosolvent)): ~10% | Mittlere Fläche (Lisuridpeakfläche zur totalen Peakfläche des Chromatogramms) ([4]; Erhöhte Temperatur (40°C), t 0 d): 99.80 Prozent | Mittlere Fläche (Lisuridpeakfläche zur totalen Peakfläche des Chromatogramms) ([4]; Erhöhte Temperatur (40°C), t 7 d): 99.33 Prozent | Mittlere Fläche (Lisuridpeakfläche zur totalen Peakfläche des Chromatogramms) ([4]; Erhöhte Temperatur (40°C), t 30 d): 97.59 Prozent | Mittlere Fläche (Lisuridpeakfläche zur totalen Peakfläche des Chromatogramms) ([4]; Erhöhte Temperatur (40°C), t 90 d): 94.06 Prozent | Mittlere Fläche (Lisuridpeakfläche zur totalen Peakfläche des Chromatogramms) ([4]; Erhöhte Temperatur (40°C), t 180 d): 89.76 Prozent | Wirkstoff zerfallen ([4]; Kühlschrank (6-8°C), 180 Tage, protected from light, 9% Propylenglykol (cosolvent)): ~0.4% | Mittlere Fläche (Lisuridpeakfläche zur totalen Peakfläche des Chromatogramms) ([4]; Kühlschrank (6-8°C), t 0 d): 99.80 Prozent | Mittlere Fläche (Lisuridpeakfläche zur totalen Peakfläche des Chromatogramms) ([4]; Kühlschrank (6-8°C), t 30 d): 99.67 Prozent | Mittlere Fläche (Lisuridpeakfläche zur totalen Peakfläche des Chromatogramms) ([4]; Kühlschrank (6-8°C), t 90 d): 99.52 Prozent | Mittlere Fläche (Lisuridpeakfläche zur totalen Peakfläche des Chromatogramms) ([4]; Raumtemperatur (25°C), t 0 d): 99.80 Prozent | Mittlere Fläche (Lisuridpeakfläche zur totalen Peakfläche des Chromatogramms) ([4]; Raumtemperatur (25°C), t 30 d): 99.46 Prozent | Mittlere Fläche (Lisuridpeakfläche zur totalen Peakfläche des Chromatogramms) ([4]; Raumtemperatur (25°C), t 90 d): 99.15 Prozent | Mittlere Fläche (Lisuridpeakfläche zur totalen Peakfläche des Chromatogramms) ([4]; Raumtemperatur (25°C), t 180 d): 98.35 Prozent | Färbung ([5]; 40°C, after 30 Tagen): signifikante gelbe Färbung | Färbung ([5]; 40°C, after weiteren 60 Tagen (following the first 30)): Braun | Mittlere Fläche (Lisuridpeakfläche zur totalen Peakfläche des Chromatogramms) ([5]; Erhöhte Temperatur (40°C), pH 3.5, 2 mg/3 mL): 99,87 Prozent | Mittlere Fläche (Lisuridpeakfläche zur totalen Peakfläche des Chromatogramms) ([5]; Erhöhte Temperatur (40°C), pH 4.5, 2 mg/3 mL): 99,79 Prozent | Mittlere Fläche (Lisuridpeakfläche zur totalen Peakfläche des Chromatogramms) ([5]; Erhöhte Temperatur (40°C), pH 5.1, 2 mg/3 mL): 100,00 Prozent | Mittlere Fläche (Lisuridpeakfläche zur totalen Peakfläche des Chromatogramms) ([5]; Kühlschrank (6-8°C), pH 3.5, 2 mg/3 mL): 99,87 Prozent | Mittlere Fläche (Lisuridpeakfläche zur totalen Peakfläche des Chromatogramms) ([5]; Kühlschrank (6-8°C), pH 4.5, 2 mg/3 mL): 99,79 Prozent | Mittlere Fläche (Lisuridpeakfläche zur totalen Peakfläche des Chromatogramms) ([5]; Kühlschrank (6-8°C), pH 5.1, 2 mg/3 mL): 100,00 Prozent | Mittlere Fläche (Lisuridpeakfläche zur totalen Peakfläche des Chromatogramms) ([5]; Raumtemperatur (25°C), pH 3.5, 2 mg/3 mL): 99,87 Prozent | Mittlere Fläche (Lisuridpeakfläche zur totalen Peakfläche des Chromatogramms) ([5]; Raumtemperatur (25°C), pH 4.5, 2 mg/3 mL): 99,79 Prozent | Mittlere Fläche (Lisuridpeakfläche zur totalen Peakfläche des Chromatogramms) ([5]; Raumtemperatur (25°C), pH 5.1, 2 mg/3 mL): 100,00 Prozent | degraded at 4320 h ([5]; Wirkstoff zersetzt, 40°C): ≤ 30% | degraded at 4320 h ([5]; Zersetzung, Kühlschrank (6-8°C)): ~0.7% | remaining at 720 h ([5]; pH 3.5, Mittlere Fläche (Lisuridpeakfläche zur totalen Peakfläche des Chromatogramms), Erhöhte Temperatur (40°C), pH 3.5, t 30 d, 2 mg/3 mL): 90.4% | remaining at 2160 h ([5]; pH 3.5, Mittlere Fläche (Lisuridpeakfläche zur totalen Peakfläche des Chromatogramms), Erhöhte Temperatur (40°C), pH 3.5, t 90 d, 2 mg/3 mL): 73.4% | remaining at 4320 h ([5]; pH 3.5, Mittlere Fläche (Lisuridpeakfläche zur totalen Peakfläche des Chromatogramms), Erhöhte Temperatur (40°C), pH 3.5, t 180 d, 2 mg/3 mL): 69.9% | remaining at 2160 h ([5]; pH 4.5, Mittlere Fläche (Lisuridpeakfläche zur totalen Peakfläche des Chromatogramms), Erhöhte Temperatur (40°C), pH 4.5, t 90 d, 2 mg/3 mL): 90.4% | remaining at 4320 h ([5]; pH 4.5, Mittlere Fläche (Lisuridpeakfläche zur totalen Peakfläche des Chromatogramms), Erhöhte Temperatur (40°C), pH 4.5, t 180 d, 2 mg/3 mL): 87.7% | remaining at 4320 h ([5]; pH 5.1, Mittlere Fläche (Lisuridpeakfläche zur totalen Peakfläche des Chromatogramms), Erhöhte Temperatur (40°C), pH 5.1, t 180 d, 2 mg/3 mL): 88% | degraded at 4320 h ([5]; pH 5.1, Zersetzung, Raumtemperatur (25°C), citrate buffer pH 5.1, 4.5, 3.5): 5% | Wirkstoff zerfallen ([6]; 1% Cremophor ELP): 14,3% | Wirkstoff zerfallen ([6]; 10% Cremophor ELP): 21.3%

Source: patent publication EP1972333A1, “Stabilised aqueous solutions of ergolin compounds” (Axxonis Pharma AG, priority 2007, dated 2008)
